Results reported in patent US10597388B2, “Pyridazinone herbicides” (FMC CORPORATION, priority 2014, dated 2020).

Columns and labels:
Assay type in all cases: in vivo
[1] = system: AMARE, redroot pigweed (Amaranthus retroflexus); assay: Test F mixtures with commercial herbicides, Post- or Pre-emergence; conditions: scale 0-100
Protocol: (§1) This test evaluated the effect of mixtures of Compound 1 or Compound 2 with various commercial herbicides on multiple plant species. Seeds of multiple plant species selected were planted into Sandy Loam soil and treated either Post-emergence or Pre-emergence with test chemicals formulated in a non-phytotoxic solvent mixture. Plants were grown in a greenhouse using supplemental lighting to maintain a photoperiod of approximately 16 h; daytime and nighttime temperatures were approximately 24-30 and 19-21° C., respectively. Balanced fertilizer was applied through the watering system. Treated plants and controls were maintained in a greenhouse for 20 d, after which time all species were compared to controls and visually evaluated. Plant response ratings summarized in Tables F1 through F4 and are based on a scale of 0 to 100 where 0 is no effect and 100 is complete control. A dash (-) response means no test result. Application rates (i.e. “Rate”) are expressed in grams of active ingredient per hectare (g a.i./ha). In the following tables KCHSC is kochia (Kochia scoparia), LOLMU in Italian Ryegrass (Lolium multiflorum), AMBEL is common ragweed (Ambrosia elatior), ECHCG is barnyardgrass (Echinochloa crus-galli), SETVI is giant foxtail (Setaria faberii), AMARE is redroot pigweed (Amaranthus retroflexus), ALOMY is blackgrass (Alopecurus myosuroides) and GALAP is galium (Galium aparine). “Obsd.” is observed effect. “Exp.” is expected effect calculated from Colby's Equation.
(§2) Colby's Equation was used to determine the herbicidal effects expected from the mixtures. Colby's Equation (Colby, S. R. “Calculating Synergistic and Antagonistic Responses of Herbicide Combinations,” Weeds, 15(1), pp 20-22 (1967)) calculates the expected additive effect of herbicidal mixtures, and for two active ingredients is of the form: Pa+b=Pa+Pb−(PaPb/100)
(§3) wherein Pa+b is the percentage effect of the mixture expected from additive contribution of the individual components:
(§4) Pa is the observed percentage effect of the first active ingredient at the same use rate as in the mixture, and
(§5) Pb is the observed percentage effect of the second active ingredient at the same use rate as in the mixture.

[2] = system: KCHSC, kochia (Kochia scoparia); assay: as above; conditions: scale 0-100
Protocol: as §1, §2, §3, §4, §5

[3] = system: LOLMU, Italian Ryegrass (Lolium multiflorum); assay: as above; conditions: scale 0-100
Protocol: as §1, §2, §3, §4, §5

[4] = system: AMBEL, common ragweed (Ambrosia elatior); assay: as above; conditions: scale 0-100
Protocol: as §1, §2, §3, §4, §5

[5] = system: GALAP, galium (Galium aparine); assay: as above; conditions: Table F3, Post-emergence, scale 0-100
Protocol: as §1, §2, §3, §4, §5

[6] = system: SETVI, giant foxtail (Setaria faberii); assay: as above; conditions: scale 0-100
Protocol: as §1, §2, §3, §4, §5

[7] = system: Canada thistle (Cirsium arvense); assay: Test D controlled growth environment herbicide test, pre- and postemergence
Method in brief: (§6)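 Rating is visual, 0–100 scale (100 = complete control), made against untreated plants 14–21 d after treatment in controlled growth conditions. Postemergence sprays went onto 1- to 4-leaf plants in peat medium; preemergence sprays onto silt loam after sowing; formulation included a surfactant.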

[8] = system: geranium, cutleaf (cutleaf geranium, Geranium dissectum); assay: as above
Method in brief: as §6

[9] = Pre-emergence, Rate 16 g a.i./ha
[10] = Pre-emergence, Rate 62 g a.i./ha
[11] = Table F3, Post-emergence, Rate 16 g a.i./ha
[12] = Table F3, Post-emergence, Rate 62 g a.i./ha
[13] = Postemergence, 31 g ai/ha, scale 0 to 100 (0 no effect, 100 complete control)
[14] = Postemergence, 125 g ai/ha, visual rating on scale 0 (no effect) to 100 (complete control), 14 to 21 d
[15] = Postemergence, 250 g ai/ha, scale 0 to 100 (0 no effect, 100 complete control)
[16] = Preemergence, 125 g ai/ha, scale 0 to 100 (0 no effect, 100 complete control)
[17] = Preemergence, 250 g ai/ha, scale 0 to 100, 0 no effect, 100 complete control
[18] = postemergence, 62 g ai/ha, scale 0 to 100, 0 no effect, 100 complete control

With `Cc1cc(C)c2sc(C)c(-c3c(O)c(C)nn(C)c3=O)c2c1` [Compound 2, 5-hydroxy-2,6-dimethyl-4-(2,5,7-trimethylbenzo[b]thien-3-yl)-3(2H)-pyridazinone] as the compound, how does the “AMARE Obsd.” value [1, 9] read?
The value was 25.

What about the “AMARE Obsd.” value [1, 10] of the same compound?
Its value is 75.

And the “AMARE Obsd.” value [1, 11]?
The value was 25.

What about the “AMARE Obsd.” value [1, 12] of the same compound?
Its value is 80.

What about the “KCHSC Obsd.” value [2, 9] of the same compound?
The value was 0.

And the “KCHSC Obsd.” value [2, 10]?
Its value is 0.

What about the “KCHSC Obsd.” value [2, 11] of the same compound?
Its value is 50.

And the “KCHSC Obsd.” value [2, 12]?
Its value is 75.

And the “LOLMU Obsd.” value [3, 9]?
Its value is 0.

And the “LOLMU Obsd.” value [3, 10]?
Its value is 50.

What about the “LOLMU Obsd.” value [3, 11] of the same compound?
The value was 75.

What about the “LOLMU Obsd.” value [3, 12] of the same compound?
Its value is 95.

What about the “AMBEL Obsd.” value [4, 9] of the same compound?
The value was 30.

And the “AMBEL Obsd.” value [4, 10]?
The value was 95.

What about the “AMBEL Obsd.” value [4, 11] of the same compound?
The value was 40.

And the “AMBEL Obsd.” value [4, 12]?
The value was 80.

What about the “GALAP Obsd.” value ([5]; Rate 16 g a.i./ha) of the same compound?
The value was 100.

What about the “GALAP Obsd.” value ([5]; Rate 62 g a.i./ha) of the same compound?
Its value is 100.

What about the “SETVI Obsd.” value [6, 9] of the same compound?
Its value is 60.

And the “SETVI Obsd.” value [6, 10]?
Its value is 98.

And the “SETVI Obsd.” value [6, 11]?
Its value is 15.

And the “SETVI Obsd.” value [6, 12]?
The value was 80.

`Cc1nn(C)c(=O)c(-c2cccc3ccc(Br)cc23)c1O` [Compound 126] was tested. Which “Canada Thistle plant response rating” value [7, 13] did it give?
Its value is 98.

And the “Plant response rating, Canada Thistle” value [7, 14]?
Its value is 98.

And the “Plant response rating, Canada Thistle” value [7, 15]?
The value was 100.

What about the “Plant response rating (scale of 0 to 100), Canada Thistle” value ([7]; Preemergence, 31 g ai/ha) of the same compound?
Its value is 0.

And the “Plant response rating, Canada Thistle” value ([7]; Preemergence, 62 g ai/ha, scale 0 to 100 (0 no effect, 100 complete control))?
The value was 15.

And the “Plant response rating, Canada Thistle” value [7, 16]?
The value was 95.

What about the “Plant response rating, Canada Thistle” value [7, 17] of the same compound?
The value was 95.

And the “Plant response rating, Canada Thistle” value [7, 18]?
The value was 100.

What about the “Geranium, Cutleaf plant response rating” value [8, 13] of the same compound?
Its value is 30.

And the “Plant response rating, Geranium, Cutleaf” value [8, 14]?
The value was 80.

What about the “Plant response rating, Geranium, Cutleaf” value [8, 15] of the same compound?
The value was 90.

What about the “Plant response rating (scale of 0 to 100), Geranium, Cutleaf” value ([8]; Preemergence, 31 g ai/ha) of the same compound?
Its value is 0.

And the “Plant response rating (scale of 0 to 100), Geranium, Cutleaf” value ([8]; Preemergence, 62 g ai/ha)?
Its value is 0.

What about the “Plant response rating, Geranium, Cutleaf” value [8, 16] of the same compound?
The value was 0.

What about the “Plant response rating, Geranium, Cutleaf” value [8, 17] of the same compound?
Its value is 15.

And the “Plant response rating, Geranium, Cutleaf” value [8, 18]?
Its value is 40.
